Source: patent publication US20210070748A1, “INHIBITORS OF BRUTONS TYROSINE KINASE” (Pharmacyclics LLC, priority 2015, published 2021)

Columns and labels:
Type in all cases: biochemical
JAK3 = molecular target: T1, JAK3 (Homo sapiens, UniProt P52333); test: Inhibition of a panel of kinases, in vitro HotSpot kinase assay: JAK3; conditions: D-compounds panel data; 1 μM ATP; read-out: IC50 JAK3
T1 sequence (P52333 1-1124): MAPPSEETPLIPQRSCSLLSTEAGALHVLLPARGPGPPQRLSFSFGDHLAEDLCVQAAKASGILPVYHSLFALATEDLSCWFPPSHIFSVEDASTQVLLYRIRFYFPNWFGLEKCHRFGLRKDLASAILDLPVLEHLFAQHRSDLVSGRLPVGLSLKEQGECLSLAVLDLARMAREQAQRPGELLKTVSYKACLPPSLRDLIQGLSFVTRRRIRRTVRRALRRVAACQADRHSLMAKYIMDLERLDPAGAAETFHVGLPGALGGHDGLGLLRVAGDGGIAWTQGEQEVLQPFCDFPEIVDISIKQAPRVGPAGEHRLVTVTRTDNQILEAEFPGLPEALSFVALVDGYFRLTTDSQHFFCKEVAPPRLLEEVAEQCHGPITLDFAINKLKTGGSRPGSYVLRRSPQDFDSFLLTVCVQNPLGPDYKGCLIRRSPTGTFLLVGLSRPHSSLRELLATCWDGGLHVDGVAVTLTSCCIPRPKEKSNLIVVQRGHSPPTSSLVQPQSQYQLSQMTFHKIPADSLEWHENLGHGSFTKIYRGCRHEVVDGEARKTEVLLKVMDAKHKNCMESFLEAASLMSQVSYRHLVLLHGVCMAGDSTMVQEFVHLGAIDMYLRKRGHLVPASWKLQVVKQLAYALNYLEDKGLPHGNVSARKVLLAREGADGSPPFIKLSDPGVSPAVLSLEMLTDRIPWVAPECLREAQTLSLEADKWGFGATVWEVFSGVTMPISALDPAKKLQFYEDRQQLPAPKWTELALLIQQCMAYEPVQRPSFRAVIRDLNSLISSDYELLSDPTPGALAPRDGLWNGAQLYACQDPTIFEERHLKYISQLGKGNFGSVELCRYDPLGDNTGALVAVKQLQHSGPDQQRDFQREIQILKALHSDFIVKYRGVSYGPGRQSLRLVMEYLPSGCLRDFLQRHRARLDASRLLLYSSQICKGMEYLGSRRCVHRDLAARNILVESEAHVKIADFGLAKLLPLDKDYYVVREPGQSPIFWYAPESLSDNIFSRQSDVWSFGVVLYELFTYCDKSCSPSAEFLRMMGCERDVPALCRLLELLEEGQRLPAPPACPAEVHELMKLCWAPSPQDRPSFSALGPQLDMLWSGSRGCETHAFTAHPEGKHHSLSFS

TEC = molecular target: T2, TEC (Homo sapiens, UniProt P42680); test: Inhibition of a panel of kinases, in vitro HotSpot kinase assay: TEC; conditions: D-compounds panel data; 1 μM ATP
T2 sequence (P42680 1-631): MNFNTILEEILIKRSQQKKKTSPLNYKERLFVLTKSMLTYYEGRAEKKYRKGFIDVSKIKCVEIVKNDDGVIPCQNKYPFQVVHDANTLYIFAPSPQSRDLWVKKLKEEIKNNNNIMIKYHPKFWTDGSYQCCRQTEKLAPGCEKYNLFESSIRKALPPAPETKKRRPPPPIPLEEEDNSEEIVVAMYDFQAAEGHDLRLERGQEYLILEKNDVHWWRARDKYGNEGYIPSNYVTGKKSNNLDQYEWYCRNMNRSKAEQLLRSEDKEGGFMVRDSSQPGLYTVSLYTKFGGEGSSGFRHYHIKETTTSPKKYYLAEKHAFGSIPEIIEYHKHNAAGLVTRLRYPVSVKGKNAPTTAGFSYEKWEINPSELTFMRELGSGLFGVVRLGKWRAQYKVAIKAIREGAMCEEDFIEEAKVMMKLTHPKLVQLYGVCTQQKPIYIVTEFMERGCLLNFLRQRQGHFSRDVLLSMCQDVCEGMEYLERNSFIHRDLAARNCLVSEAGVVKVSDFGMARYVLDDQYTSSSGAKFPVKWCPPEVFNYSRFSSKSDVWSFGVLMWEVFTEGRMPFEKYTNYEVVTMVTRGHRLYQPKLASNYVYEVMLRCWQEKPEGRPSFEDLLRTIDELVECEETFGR
Procedure: (§1) The degree of inhibition of a panel of kinases is determined using the in vitro HotSpot kinase assay (purified enzymes, ^33P-ATP, an appropriate substrate and 1 μM ATP).

SRC = SRC (Homo sapiens, UniProt P12931); test: Inhibition of a panel of kinases, in vitro HotSpot kinase assay: SRC; conditions: D-compounds panel data; 1 μM ATP
Procedure: as §1

Chain of SRC (P12931 whole entry): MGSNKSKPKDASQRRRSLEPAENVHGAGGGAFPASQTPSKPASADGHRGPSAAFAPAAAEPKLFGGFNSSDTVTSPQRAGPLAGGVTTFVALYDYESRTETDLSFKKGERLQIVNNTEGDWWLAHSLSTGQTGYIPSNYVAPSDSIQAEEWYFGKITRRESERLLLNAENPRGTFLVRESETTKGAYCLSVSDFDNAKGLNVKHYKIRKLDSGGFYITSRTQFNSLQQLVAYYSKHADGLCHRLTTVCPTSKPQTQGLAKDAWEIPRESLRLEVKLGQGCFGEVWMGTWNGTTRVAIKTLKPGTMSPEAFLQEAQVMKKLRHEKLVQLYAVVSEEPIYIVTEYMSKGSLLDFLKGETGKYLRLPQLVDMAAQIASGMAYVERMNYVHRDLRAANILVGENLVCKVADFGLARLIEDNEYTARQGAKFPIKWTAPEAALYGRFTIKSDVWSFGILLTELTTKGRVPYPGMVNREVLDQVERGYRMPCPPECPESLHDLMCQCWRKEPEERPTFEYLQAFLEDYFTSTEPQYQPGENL

Row | IC50 (JAK3) [nM] | IC50 (TEC) [nM] | IC50 (SRC) [nM] | SMILES
1 | 1000 to 10000 | ≤ 10 | 10 to 100 | C[C@@H]1[C@H](NC(=O)c2ccc(C3CC3)cc2)CCCN1c1cnc(C(N)=O)c(Nc2cnn(C3CCN(C(=O)C4CC4)CC3)c2)n1 [Example D-288, 3-{[1-(1-cyclopropanecarbonylpiperidin-4-yl)-1H-pyrazol-4-yl]amino}-5-[(2R,3R)-3-(4-cyclopropylbenzamido)-2-methylpiperidin-1-yl]pyrazine-2-carboxamide]
2 | 100 to 1000 | ≤ 10 | 10 to 100 | CC(=O)N1CCN(c2ccc(Nc3nc(N4CCC[C@@H](NC(=O)c5ccc(C6CC6)cc5)[C@H]4C)cnc3C(N)=O)cc2)CC1 [Example D-295, 3-{[4-(4-acetylpiperazin-1-yl)phenyl]amino}-5-[(2R,3R)-3-(4-cyclopropylbenzamido)-2-methylpiperidin-1-yl]pyrazine-2-carboxamide]
3 | > 10000 | 1000 to 10000 | > 10000 | Cc1nn(C)cc1Nc1nc(N2CCC[C@@H](NC(=O)c3ccc(C4CC4)cc3)[C@H]2C)cnc1C(N)=O [Example D-272, 5-[(2R,3R)-3-(4-cyclopropylbenzamido)-2-methylpiperidin-1-yl]-3-[(1,3-dimethyl-1H-pyrazol-4-yl)amino]pyrazine-2-carboxamide]
4 | 100 to 1000 | ≤ 10 | 10 to 100 | COCCN(C)c1ccc(C(=O)N[C@@H]2CCCN(c3cnc(C(N)=O)c(Nc4cnn(C)c4)n3)[C@@H]2C)cc1 [Example D-248, 5-[(2R,3R)-3-{4-[(2-methoxyethyl)(methyl)amino]benzamido}-2-methylpiperidin-1-yl]-3-[(1-methyl-1H-pyrazol-4-yl)amino]pyrazine-2-carboxamide]
5 | 100 to 1000 | ≤ 10 | 10 to 100 | C[C@@H]1[C@H](NC(=O)c2ccc(C3CC3)nc2)CCCN1c1cnc(C(N)=O)c(Nc2ccc(OC3CCOCC3)cc2)n1 [Example D-309, 5-[(2R,3R)-3-(6-cyclopropylpyridine-3-amido)-2-methylpiperidin-1-yl]-3-{[4-(oxan-4-yloxy)phenyl]amino}pyrazine-2-carboxamide]
6 | 1000 to 10000 | 10 to 100 | 100 to 1000 | C[C@@H]1[C@H](NC(=O)c2ccc(C3CC3)cc2)CCCN1c1cnc(C(N)=O)c(Nc2ccc(C3CCN(C)CC3)cc2)n1 [Example D-301, 5-[(2R,3R)-3-(4-cyclopropylbenzamido)-2-methylpiperidin-1-yl]-3-{[4-(1-methylpiperidin-4-yl)phenyl]amino}pyrazine-2-carboxamide]
7 | 1000 to 10000 | ≤ 10 | 10 to 100 | C[C@@H]1[C@H](NC(=O)c2ccc3c(c2)CCC(C)(C)O3)CCCN1c1cnc(C(N)=O)c(Nc2cnn(C)c2)n1 [Example D-258, 5-[(2R,3R)-3-(2,2-dimethyl-3,4-dihydro-2H-1-benzopyran-6-amido)-2-methylpiperidin-1-yl]-3-[(1-methyl-1H-pyrazol-4-yl)amino]pyrazine-2-carboxamide]
8 | 1000 to 10000 | ≤ 10 | ≤ 10 | C[C@@H]1[C@H](NC(=O)c2ccc(C3CC3)cc2)CCCN1c1cnc(C(N)=O)c(Nc2cnn(C3CCN(C(=O)C4(C)COC4)CC3)c2)n1 [Example D-289, 5-[(2R,3R)-3-(4-cyclopropylbenzamido)-2-methylpiperidin-1-yl]-3-({1-[1-(3-methyloxetane-3-carbonyl)piperidin-4-yl]-1H-pyrazol-4-yl}amino)pyrazine-2-carboxamide]
9 | 1000 to 10000 | 10 to 100 | 10 to 100 | C[C@@H]1[C@H](NC(=O)N(C)C)CCCN1c1nnc(C(N)=O)c(Nc2cnn(C)c2)n1 [Example D-286, 3-[(2R,3R)-3-[(dimethylcarbamoyl)amino]-2-methylpiperidin-1-yl]-5-[(1-methyl-1H-pyrazol-4-yl)amino]-1,2,4-triazine-6-carboxamide]
10 | > 10000 | > 10000 | > 10000 | C[C@@H]1[C@H](NC(=O)c2ccc(C3CC3)cc2)CCCN1c1cnc(C(N)=O)c(Nc2cn(C)nc2C(F)(F)F)n1 [Example D-278, 5-[(2R,3R)-3-(4-cyclopropylbenzamido)-2-methylpiperidin-1-yl]-3-{[1-methyl-3-(trifluoromethyl)-1H-pyrazol-4-yl]amino}pyrazine-2-carboxamide]
11 | 100 to 1000 | ≤ 10 | 10 to 100 | C[C@@H]1[C@H](NC(=O)c2cc(C3CC3)n(C)n2)CCCN1c1cnc(C(N)=O)c(Nc2cnn(C)c2)n1 [Example D-253, 5-[(2R,3R)-3-(5-cyclopropyl-1-methyl-1H-pyrazole-3-amido)-2-methylpiperidin-1-yl]-3-[(1-methyl-1H-pyrazol-4-yl)amino]pyrazine-2-carboxamide]
12 | > 10000 | 100 to 1000 | 1000 to 10000 | C[C@@H]1[C@H](NC(=O)c2ccc(C3CC3)cc2)CCCN1c1cnc(C(N)=O)c(Nc2cnn(C)c2F)n1 [Example D-290, 5-[(2R,3R)-3-(4-cyclopropylbenzamido)-2-methylpiperidin-1-yl]-3-[(5-fluoro-1-methyl-1H-pyrazol-4-yl)amino]pyrazine-2-carboxamide]
13 | 1000 to 10000 | ≤ 10 | 10 to 100 | C[C@@H]1[C@H](NC(=O)c2cc3n(n2)CCC3)CCCN1c1cnc(C(N)=O)c(Nc2cnn(C)c2)n1 [Example D-263, 3-[(1-methyl-1H-pyrazol-4-yl)amino]-5-[(2R,3R)-2-methyl-3-{4H,5H,6H-pyrrolo[1,2-b]pyrazole-2-amido}piperidin-1-yl]pyrazine-2-carboxamide]
14 | 1000 to 10000 | ≤ 10 | 10 to 100 | C[C@@H]1[C@H](NC(=O)c2ccc(C(N)=O)cc2)CCCN1c1cnc(C(N)=O)c(Nc2cnn(C)c2)n1 [Example D-268, 1-N-[(2R,3R)-1-{5-carbamoyl-6-[(1-methyl-1H-pyrazol-4-yl)amino]pyrazin-2-yl}-2-methylpiperidin-3-yl]benzene-1,4-dicarboxamide]
15 | 1000 to 10000 | ≤ 10 | 10 to 100 | C[C@@H]1[C@H](NC(=O)c2ccc(C(C)(C)C#N)cc2)CCCN1c1cnc(C(N)=O)c(Nc2ccc(OC3CCN(C)CC3)cc2)n1 [Example D-292, 5-[(2R,3R)-3-[4-(1-cyano-1-methylethyl)benzamido]-2-methylpiperidin-1-yl]-3-({4-[(1-methylpiperidin-4-yl)oxy]phenyl}amino)pyrazine-2-carboxamide]
16 | 1000 to 10000 | 10 to 100 | 100 to 1000 | C[C@@H]1[C@H](NC(=O)c2ccc(C3CC3)cc2C(F)(F)F)CCCN1c1cnc(C(N)=O)c(Nc2cnn(C)c2)n1 [Example D-25, 5-[(2R,3R)-3-[4-cyclopropyl-2-(trifluoromethyl)benzamido]-2-methylpiperidin-1-yl]-3-[(1-methyl-1H-pyrazol-4-yl)amino]pyrazine-2-carboxamide]
17 | > 10000 | 1000 to 10000 | > 10000 | C[C@@H]1[C@H](NC(=O)c2ccc(C3CC3)cc2)CCCN1c1cnc(C(N)=O)c(Nc2ccc3c(c2)OC(F)(F)O3)n1 [Example D-315, 5-[(2R,3R)-3-(4-cyclopropylbenzamido)-2-methylpiperidin-1-yl]-3-[(2,2-difluoro-2H-1,3-benzodioxol-5-yl)amino]pyrazine-2-carboxamide]
